Laboratory results: publication PMC7575681 (EJNMMI Research, 2020)

Columns and labels:
[1] = design: method as in PMID 21498533; conditions: cited from earlier work
[2] = Micro-PET/CT brain imaging in ICR mice with thiamine deficiency (TD) and control mice; assay type: in vivo; conditions: control mice (C57BL/6 and ICR, Fig. 3a, c)
From the text: Eight-week-old male C57BL/6 and ICR mice were randomly divided into two groups: TD mouse models (n = 2 for C57BL/6, one died due to anesthesia during micro-PET/CT scanning; n = 3 for ICR) were established by feeding thiamine-deprived diet (Trophic Animal Feed High-tech Co., Ltd., China). Control mice (n = 3 for each strain) were fed the general diet. Twenty-eight days later, all mice received PET/CT scanning.
The animals were anesthetized by inhaling 1.5–2% of isoflurane in air (1.5 L/min) and received CT scan for acquiring structure image and attenuation correction data. […] Brain PET imaging was immediately performed and dynamically acquired for 90 min with an energy window of 350–650 KeV and a time window of 3.438 ns. […] Dynamic images were reconstructed by OSEM3D/SP-MAP algorithm with two iterations. After scanning, the mice were sacrificed.

## OC[C@H]1OC(O)[C@H]([18F])[C@@H](O)[C@@H]1O (some centres unmarked) [FDG, [^18F]-fluorodeoxyglucose]
[1]
  SUV in the brains of mice: 1–2

## ^18F-deoxy-thiamine
[2]
  SUVs in the brains: less than 0.4
